ChEMBL document CHEMBL4619734, “Molecule Property Analyses of Active Compounds for Mycobacterium tuberculosis” (J Med Chem, 2020)
In brackets after ≈: the same amount, converted by molar mass.

Tests used:
Assay type in all cases: functional
[1] = tested on: Mycobacterium tuberculosis; experiment: Antitubercular activity against Mycobacterium tuberculosis harboring mmpL3
[2] = tested on: Mycobacterium tuberculosis; experiment: Antimycobacterial activity against multi drug-resistant Mycobacterium tuberculosis H37Rv
[3] = tested on: Mycobacterium tuberculosis; experiment: Antimycobacterial activity against multi drug-resistant Mycobacterium tuberculosis
[4] = tested on: Mycobacterium tuberculosis; experiment: Antimycobacterial activity against multi drug-resistant Mycobacterium tuberculosis expressing WecA
[5] = tested on: Mycobacterium tuberculosis; experiment: Antimycobacterial activity against Mycobacterium tuberculosis drug resistant clinical isolates

Cc1c(CN2CCN(c3ccc(C(F)(F)F)cc3)CC2)cc(-c2ccccc2)n1NC(=O)c1ccncc1
MIC [1]: 0.025 to 0.12 µg/mL (≈ 0.0481 to 0.231 µM)

Cc1c(CN2CCN(C)CC2)cc(-c2ccc(Cl)cc2)n1-c1ccc(Cl)cc1
MIC [1]: 0.7 to 6.2 µg/mL (≈ 1.69 to 15 µM)

Cc1cc2nc(CCc3cc(Cl)cc(Cl)c3)[nH]c2cc1C
MIC90 [2]: 5 µM (≈ 1.6 µg/mL)

CC/N=c1\cc2n(-c3ccc(C(F)(F)F)cc3)c3ccccc3nc-2cc1Nc1ccc(C(F)(F)F)cc1
MIC [3]: 0.25 µg/mL (≈ 0.475 µM)

CCN(CC)C/N=c1\cc2n(-c3ccc(Cl)c(Cl)c3)c3ccccc3nc-2cc1Nc1ccc(Cl)c(Cl)c1
MIC [3]: 0.12 µg/mL (≈ 0.205 µM)

CCCCc1ccc(NC(=O)C2=CCN(C)C(C(O[C@@H]3O[C@H](CN)[C@@H](O)[C@H]3O)[C@H]3OC(n4ccc(=O)[nH]c4=O)[C@H](O)[C@@H]3O)C(=O)N2C)cc1 (stereo partly specified)
MIC [4]: 6.25 µg/mL (≈ 9.07 µM)

Cc1c(CN2CCSCC2)cc(-c2ccc(F)cc2)n1-c1ccccc1
MIC [1]: 0.5 µg/mL (≈ 1.36 µM)

CC(C)/N=c1\cc2n(-c3ccc(Cl)cc3)c3ccccc3nc-2cc1Nc1ccc(Cl)cc1 [CLOFAZIMINE]
MIC [3]: 1 µg/mL (≈ 2.11 µM)

C[C@]1(COc2ccc(N3CCC(Oc4ccc(OC(F)(F)F)cc4)CC3)cc2)Cn2cc([N+](=O)[O-])nc2O1 [DELAMANID]
MIC [5]: 0.01 µg/mL (≈ 0.0187 µM)

O=[N+]([O-])c1cn2c(n1)OC[C@@H](OCc1ccc(OC(F)(F)F)cc1)C2 [PRETOMANID]
MIC90 [5]: 0.531 µg/mL (≈ 1.48 µM)

CC(C)=CCC/C(C)=C/CNCCNC1C2CC3CC(C2)CC1C3 (stereo unspecified) [SQ109]
MIC [1]: 0.16 to 0.64 µg/mL (≈ 0.484 to 1.94 µM)
